IC50 data for 23 compounds are collected here from patent US8431593B2, “Heteroaryl amide derivatives” (H. Lundbeck A/S, priority 2006, dated 2013).

One assay addresses T1, P2X7 receptor (Homo sapiens, UniProt Q99572).
T1 construct: host or cells: SH-SY5Y
T1 sequence (Q99572 1-595): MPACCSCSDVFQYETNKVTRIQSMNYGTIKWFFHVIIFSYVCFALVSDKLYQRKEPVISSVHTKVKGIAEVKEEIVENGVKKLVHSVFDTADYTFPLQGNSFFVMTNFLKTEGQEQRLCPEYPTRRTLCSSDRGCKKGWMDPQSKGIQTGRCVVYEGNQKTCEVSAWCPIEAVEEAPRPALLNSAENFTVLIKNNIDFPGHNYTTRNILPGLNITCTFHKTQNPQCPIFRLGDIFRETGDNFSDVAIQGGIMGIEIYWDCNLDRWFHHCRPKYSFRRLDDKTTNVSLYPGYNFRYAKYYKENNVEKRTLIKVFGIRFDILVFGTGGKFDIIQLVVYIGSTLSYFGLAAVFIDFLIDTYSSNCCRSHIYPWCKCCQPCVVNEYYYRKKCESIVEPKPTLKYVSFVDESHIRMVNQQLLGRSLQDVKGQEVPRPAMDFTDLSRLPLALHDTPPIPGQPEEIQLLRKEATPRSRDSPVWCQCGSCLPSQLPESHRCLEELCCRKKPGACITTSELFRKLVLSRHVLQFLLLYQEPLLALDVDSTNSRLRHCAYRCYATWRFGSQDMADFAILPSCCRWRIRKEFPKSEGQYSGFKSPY
Kind of assay: P2X7 calcium mobilization assay, high throughput, antagonist activity (Example 4A).
Conditions: not given
Format: cell-based. A digest of the protocol: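 FLIPR^TETRA calcium read-out: maximum RFU per well minus average no-agonist control, with agonist wells giving the average positive maximum. Cells seeded at 100,000/well one day ahead, dye-loaded 1 h, rinsed, then exposed to compound for 1 h at room temperature.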
Usually IC50 stands for the concentration at which inhibition is half-maximal. As to `CCOC(=O)Cc1cn2c(NC(=O)CC34CC5CC(CC(C5)C3)C4)cccc2n1` [Compound 145, ethyl {5-[(adamantan-1-ylacetyl)amino]imi-dazo[1,2-a]pyridin-2-yl}acetate], the IC50 is < 2000 nM.

The same assay, now with this note: 50% decrease in the fluorescence response of cells exposed to 80 μM 2′(3′)-O-(4-benzoyl-benzoyl)adenosine 5′-triphosphate; Example 4A; read-out: IC50.
Take `O=C(CC12CC3CC(CC(C3)C1)C2)Nc1cccc2nc(C(=O)N3CC[C@H](O)C3)cn12` [Compound 419, 2-adamantan-1-yl-N-(2-{[(3S)-3-hydroxypyrrolidin-1-yl]carbonyl}imidazo [1,2-a]pyridin-5-yl)acetamide]: the IC50 was < 2000 nM.

Consider `CN(C(=O)c1cn2c(C(=O)NCC34CC5CC(CC(C5)C3)C4)cccc2n1)C1CCCNC1` (centres unmarked) [Compound 605, 5-N-(adamantan-1-ylmethyl)-2-N-methyl-2-N-piperidin-3-ylimidazo[1,2-a]pyridine-2,5-dicarboxamide], for which the concentration for half-maximal inhibition (IC50) was < 2000 nM.

For the compound `Cn1nnnc1SCc1cn2c(C(=O)NCC34CC5CC(CC(C5)C3)C4)cccc2n1` [Compound 532, N-(adamantan-1-ylmethyl)-2-{[(1-methyl-1H-tetrazol-5-yl)thio]methyl}imidazo [1,2-a]pyridine-5-carboxamide], the concentration for half-maximal inhibition (IC50) was < 2000 nM.

For the compound `CC1(C)[C@@H]2CC[C@@H](CNC(=O)c3cccc4nc(CC(=O)N5CCNCC5)cn34)[C@H]1C2` [Compound 555, N-{[(1R,2R,5R)-6,6-dimethylbicyclo[3.1.1]hept-2-yl]methyl}-2-(2-oxo-2-piperazin-1-ylethyl)imidazo[1,2-a]pyridine-5-carboxamide], the IC50 was < 2000 nM.

Staying with this assay, now noted: 50% decrease in the fluorescence response of cells exposed to 80 μM of 2′(3′)-O-(4-benzoyl-benzoyl)adenosine 5′-triphosphate; Example 4A; read-out: IC50.
As to `NC1CC2CCC(C1)N2C(=O)c1cn2c(C(=O)NCC34CC5CC(CC(C5)C3)C4)cccc2n1` (centres unmarked) [Compound 640, N-(adamantan-1-ylmethyl)-2-[(3-amino-8-azabicyclo[3.2.1]oct-8-yl)carbonyl]imidazo[1,2-a]pyridine-5-carboxamide], the IC50 was < 2000 nM.

Turning to `CC(C)CC(CNC(=O)c1cccc2nc(CN3CCOCC3)cn12)c1ccccc1` (centres unmarked) [Compound 688, N-(4-methyl-2-phenylpentyl)-2-(morpholin-4-ylmethyl)imidazo[1,2-a]pyridine-5-carboxamide], the IC50 was < 2000 nM.

Turning to `CC(C)N(CCNC(=O)c1cn2c(C(=O)NCC34CC5CC(CC(C5)C3)C4)cccc2n1)C(C)C` [Compound 652, 5-N-(adamantan-1-ylmethyl)-2-N-[2-(diisopropylamino)ethyl]imidazo [1,2-a] pyridine-2,5-dicarboxamide], the 50% inhibitory concentration (IC50) is < 2000 nM.

On to `CC1(C)C2CC[C@H](CNC(=O)c3cccc4nc(CC(=O)NCC(F)(F)F)cn34)C1C2` (stereo partly drawn) [Compound 793, N-{[(2S)-6,6-dimethylbicyclo [3.1.1]hept-2-yl]methyl}-2-{2-oxo-2-[(2,2,2-trifluoroethyl)amino]ethyl}imidazo [1,2-a]pyridine-5-carboxamide], for which the concentration for half-maximal inhibition (IC50) was < 2000 nM.

On to `N[C@@H]1CCN(C(=O)CCc2cn3c(C(=O)NCC45CC6CC(CC(C6)C4)C5)cccc3n2)C1` [Compound 778, N-(adamantan-1-ylmethyl)-2-{3-[(3R)-3-aminopyrrolidin-1-yl]-3-oxopropyl} imidazo[1,2-a] pyridine-5-carboxamide], for which the IC50 was < 2000 nM.

As to `CC(C)CC(CNC(=O)c1cccc2nc(CC(=O)NCC(F)(F)F)cn12)c1ccc(Cl)cc1` (centres unmarked) [Compound 796, N-[2-(4-chlorophenyl)-4-methylpentyl]-2-{2-oxo-2-[(2,2,2-trifluoroethyl)amino]ethyl} imidazo[1,2-a] pyridine-5-carboxamide], the IC50 was < 2000 nM.

For the compound `CN(C)CCN(C(=O)c1cn2c(C(=O)NCC34CC5CC(CC(C5)C3)C4)cccc2n1)C1CCNCC1(C)C` (centres unmarked) [Compound 620, 5-N-(adamantan-1-ylmethyl)-2-N-[2-(dimethylamino)ethyl]-2-N-(3,3-dimethylpiperidin-4-yl)imidazo[1,2-a]pyridine-2,5-dicarboxamide], the IC50 was < 2000 nM.

The same assay, now with this note: 50% decrease in the fluorescence response of cells exposed to 80 μM of 2′(3′)-O-(4-benzoyl-benzoyl)adenosine 5′-triphosphate; determined as in Example 4A; read-out: IC50.
Consider `O=C(NCC12CC3CC(CC(C3)C1)C2)c1cccc2nc(CC(Cc3ccccc3)C(=O)O)cn12` (centres unmarked) [Compound 1003, 3-{5-[(adamantan-1-ylmethyl)carbamoyl]imidazo[1,2-a]pyridin-2-yl}-2-benzylpropanoic acid], for which the IC50 was < 2000 nM.

Regarding `CC(C)CC(CNC(=O)c1cccc2nc(CC(Cc3ccccc3)C(=O)O)cn12)c1ccc(Cl)cc1` (centres unmarked) [Compound 1007, 2-benzyl-3-(5-{[2-(4-chlorophenyl)-4-methylpentyl]carbamoyl}imidazo[1,2-a]pyridin-2-yl) propanoic acid], the IC50 is < 2000 nM.

In the case of `CCOC(=O)Cc1nnn(Cc2cn3c(C(=O)NCC45CC6CC(CC(C6)C4)C5)cccc3n2)n1` [Compound 901, ethyl [2-({5-[(adamantan-1-ylmethyl)carbamoyl]imidazo[1,2-a]pyridin-2-yl}methyl)-2H-tetrazol-5-yl]acetate], the half-maximal inhibitory concentration (IC50) is < 2000 nM.

Regarding `O=C(Cc1cn2c(C(=O)NCC3(c4ccc(Cl)cc4)CCCCC3)cccc2n1)NCC1CC1` [Compound 862, N-{[1-(4-chlorophenyl)cyclohexyl]methyl}-2-{2-[(cyclopropylmethyl)amino]-2-oxoethyl} imidazo[1,2-a] pyridine-5-carboxamide], the IC50 is < 2000 nM.

Still in this assay, the particulars now being: SH-SY5Y cells; 50% decrease in fluorescence response to 80 μM BzATP; read-out: IC50.
As to `O=C(NCC12CC3CC(CC(C3)C1)C2)c1cccc2nc(Cn3cnc(CO)c3)cn12` [Compound 199, N-(adamantan-1-ylmethyl)-2-{[4-(hydroxymethyl)-1H-imidazol-1-yl]methyl}imidazo[1,2-a]pyridine-5-carboxamide], the IC50 was < 2000 nM.

With `COC1CCN(C(=O)Cc2cn3c(C(=O)NCC45CC6CC(CC(C6)C4)C5)cccc3n2)CC1` [Compound 42, N-(adamantan-1-ylmethyl)-2-[2-(4-methoxypiperidin-1-yl)-2-oxoethyl]imidazo[1,2-a]pyridine-5-carboxamide], the IC50 was < 2000 nM.

For the compound `NC(=O)CNC(=O)Cc1cn2c(C(=O)NCC34CC5CC(CC(C5)C3)C4)cccc2n1` [Compound 24, N-(adamantan-1-ylmethyl)-2-{2-[(2-amino-2-oxoethyl)amino]-2-oxoethyl}imidazo[1,2-a]pyridine-5-carboxamide], the concentration for half-maximal inhibition (IC50) is < 2000 nM.

For `Cc1ccn(Cc2cn3c(C(=O)NCC45CC6CC(CC(C6)C4)C5)cccc3n2)n1` [Compound 210, N-(adamantan-1-ylmethyl)-2-[(3-methyl-1H-pyrazol-1-yl)methyl]imidazo[1,2-a]pyridine-5-carboxamide], the IC50 was < 2000 nM.

The assay is the same for the next values; noted with them: fluorescence response of cells exposed to 80 μM 2′(3′)-O-(4-benzoyl-benzoyl)adenosine 5′-triphosphate; Example 4A; read-out: IC50.
`CC1(C)[C@H]2CC[C@@H](CNC(=O)c3cccc4nc(C(=O)NC5CCNC5)cn34)[C@@H]1C2` (stereo partly drawn) [Compound 333, 5-N-{[(1S,2R,5S)-6,6-dimethylbicyclo[3.1.1]hept-2-yl]methyl}-2-N-pyrrolidin-3-ylimidazo[1,2-a]pyridine-2,5-dicarboxamide]: the IC50 is < 2000 nM.

With `O=C(O)c1cccn(Cc2cn3c(C(=O)NCC45CC6CC(CC(C6)C4)C5)cccc3n2)c1=O` [Compound 351, 1-({5-[(adamantan-1-ylmethyl)carbamoyl]imidazo[1,2-a]pyridin-2-yl}methyl)-2-oxo-1,2-dihydropyridine-3-carboxylic acid], the IC50 was < 2000 nM.

For `O=C(NCC12CC3CC(CC(C3)C1)C2)c1cccc2nc(CS(=O)(=O)CCO)cn12` [Compound 267, N-(adamantan-1-ylmethyl)-2-{[(2-hydroxyethyl)sulfonyl]methyl}imidazo[1,2-a]pyridine-5-carboxamide], the IC50 is < 2000 nM.
